From publication PMC9084888, “FGFR2–BRD4 Axis Regulates Transcriptional Networks of Histone 3 Modification and Synergy Between Its Inhibitors and PD-1/PD-L1 in a TNBC Mouse Model” (Frontiers in Immunology, 2022)

Assays:
Type in all cases: cell-based, mouse
c-Myc = assay: Western blot of c-Myc in treated Fgfr2-S252W tumor cells; conditions: Figure 5F
Method: (§1) Total proteins of tumors or cells were extracted using RIPA buffer with phosphatase and a protease inhibitor. Following a previously described protocol, immunoblotting was carried out using ChemiDocTM with corresponding antibodies. The antibodies used for IHC and Western blot are listed in Supplementary Table S2 .
(§2) (C) Immunoblots with antibodies specific for the H3K9 acetylated lysine residues of histone H3 and pathway analysis of the activation of FGFR2 tumors or wild type (WT). […] (E) Assessment of the drug response of BGJ398, JQ1, or the combined treatment of Fgfr2-S252W tumor cells with the Alamar blue assay. […] (G) Inflammation analysis using real-time RT-PCR from Fgfr2-S252W or WT mouse. P-values by using GraphPad Prism 7 Software. **p < 0.01, ***p < 0.001, ****p < 0.0001.

BRD4 = assay: Western blot of BRD4 in treated Fgfr2-S252W tumor cells; conditions: Figure 5F
Method: as §1, §2

Fgfr2-S252W tumor cells = assay: Alamar blue drug response assay of Fgfr2-S252W tumor cells
Description: All animal experiments were approved by the University of Macau Animal Ethics Committee (under the protocol UMARE-015-2019). The generation of Fgfr2-S252W mice was described in a previous work ([19]). Transgenic mice were continually checked to accelerate the growth of mammary tumors. Tumor samples were cut using sharp blades into small pieces of about 0.1–0.3 cm in diameter and processed three ways, as follows: 1) two larger pieces were fixed in 10% formalin and processed for histology and immunohistochemistry (IHC) staining with antibodies; 2) three pieces were immediately frozen in liquid nitrogen and used for subsequent DNA, RNA, and protein isolation; and 3) all the remaining pieces were placed in a freezing medium [10% DMSO/25% serum/65% Dulbecco’s modified Eagle’s medium (DMEM)], slowly frozen to −80°C, and transferred into liquid nitrogen a few days later. […] Primary FGFR2 tumor cells were derived from the Fgfr2-S252W mouse model using a standard procedure and maintained in F-medium.
Figure 5 (A, B) RT-PCR analysis of the mRNA levels of Brd4 (A) and c-Myc (B) in tumors from the activation of Fgfr2-S252W transgenic mice. (C) Immunoblots with antibodies specific for the H3K9 acetylated lysine residues of histone H3 and pathway analysis of the activation of FGFR2 tumors or wild type (WT). […]

Structure (SMILES)	inhibition of c-Myc (Western blot) (c-Myc)	inhibition of BRD4 (Western blot) (BRD4)	resistance of Fgfr2-S252W tumor cells (Fgfr2-S252W tumor cells)	drug response of Fgfr2-S252W cells (Fgfr2-S252W tumor cells; cell culture conditions, single agent, compared to response to FGFR inhibitor BGJ398)
CCN1CCN(c2ccc(Nc3cc(N(C)C(=O)Nc4c(Cl)c(OC)cc(OC)c4Cl)ncn3)cc2)CC1 [BGJ398]	inhibit	inhibit	–	–
Cc1sc2c(c1C)C(c1ccc(Cl)cc1)=N[C@@H](CC(=O)OC(C)(C)C)c1nnc(C)n1-2 [JQ1]	inhibit	inhibit	still showed resistance	not very sensitive
